Read-outs that look alike come from different tables or passages of the source.
Key:
Tau/aggregate = Tau/aggregate inhibition in HEK 293 cells expressing mKate2-tagged Tau; assay type: cell-based, Human; conditions: for % Inhibition Tau/aggregate: @ 2 μM; for inhibition at 1 µM: Homo sapiens, HEK293
Method: (§1) 1) HEK cells with tet-regulated expression of mKate2 tagged Tau were grown in DMEM medium (Dulbecco's Modified Eagle's Medium) containing 0.5 μg/mL doxycycline (Dox)(MP-Bio#198955), after 3-5 days Dox was removed by washing the cells twice with sterile phosphate buffered saline (PBS; Invitrogen#14190-144), cells were left in DMEM without Dox for 72 hours (to further clear remaining Dox in cells).
(§2) The test compounds (along with CytoID™ dye and Hoechst stain) were added to the cells and incubated for 3 hours. Reference compounds were also used in each plate, Rapamycin was used for autophagy induction and chloroquine was used for lysosomal inhibition. After 3 hours test compound was aspirated off and kept. Cells were then washed and read using a fluorescence plate reader. Hoescht, Cyto-ID™ and mKate2 were measured using 3 distinct wavelengths on the plate reader. The Hoescht measurement allowed normalisation of results across wells. After reading, test compound was re-added and the cells are left for a further 21 hours. At the 24 hour time point cells were once again washed and plates read using the fluorescence plate reader.
(§3) Proteostat™ assay was used to detect aggresomes via measurement of p62. Aggresomes are inclusion bodies that form when the ubiquitin-proteasome machinery is overwhelmed with aggregation-prone proteins. Typically, an aggresome forms in response to some cellular stress, such as hyperthermia, viral infection, or exposure to reactive oxygen species. Aggresomes may provide a cytoprotective function by sequestering the toxic, aggregated proteins and may also facilitate their ultimate elimination from cells by autophagy. Following the final plate read described in the Cyto-ID™ assay described above, Proteostat™ detection reagent was added to every well and the plate was incubated for 15 minutes. Following this incubation, the plate was read by fluorescence plate reader at the specified wavelength. After this plate read, the cells were fixed by incubating with warm paraformaldehyde for 8 minutes. The fixed cells were then read by plate reader as before.
Western blot assays were performed to determine protein changes in Tau and p62. Cells were cultured as above and incubated with test compounds for 24 h. Following test compound incubation, the test compound was aspirated off and cells were washed before harvesting. Cells were spun at a low speed and supernatant was aspirated to leave the cell pellet. The cell pellet was then homogenized in buffer, centrifuged at high speed, and the supernatant aspirated and further separated into total fraction and aggregate fraction allowing quantification of soluble and insoluble proteins. Western blots were run on the samples, gels transferred to nitrocellulose and incubated with antibodies for Tau and p62. After incubation with secondary antibodies for detection, the bands of protein were quantified by chemiluminescence.

Autophagy Markers = experiment: Autophagy markers (Cyto-ID assay) in HEK 293 cells; assay type: cell-based, Human
Method: The dye used in the kit prevents its accumulation within lysosomes, but enables labelling of vacuoles associated with the autophagy pathway using the LC3 biomarker.
as §2
2) Test samples were prepared in warm FluoroBrite™ DMEM and with 10% FBS and 1% NEAA (FB-DMEM). Rapamycin 200 nM (Enzo #BML-A275-0025) was used for autophagy induction and […] chloroquine was used for lysosomal inhibition (bafilomycin or similar compounds were not used as they give a false negative result in the assay). Dimethyl Sulfoxide 1:1000 (DMSO; Fisher #BP231-100) was used as control. Autophagosome marker Cyto ID™ (1:500; Enzo #ENZ-51031-k200) and Hoechst (1:200) was added to these test sample preparations before treating the cells.
7) At 24 hours post reaction all medium was aspirated and the plate was washed 3 times with warm FB-DMEM, and read again for Hoescht (Ex=355 nm Em=446 nm), CytoID™ (Ex=463 nm; Em=534 nm) and mKate2 (Ex=575 nm; Em=630 nm) in 80 μl of FB-DMEM.

[1] = Cytotoxicity LC50 (XTT assay for cell viability); assay type: cell-based; conditions: human, transfected HEK 293 cells that express mKate2-tagged Tau;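 also: cells carry doxycycline-repressible Tau, induced by withdrawing doxycycline for 72 h before compound exposure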
Method: The cells were grown in the presence of the antibiotic doxycycline. When the antibiotic is removed the cells produce Tau (which can be quantified), thus allowing the test compounds' effects on Tau's production to be compared. Doxycycline was removed for 72 hours prior to exposure to the test compounds to promote sufficient Tau production. Cells were subsequently plated into plates for each of the assays described below.

phospholipase D (PLD) = experiment: PLD assay (conversion of phospholipids to phosphatidylethanols in presence of ethanol, LC/MS); assay type: cell-based, mice; set-up: key: NC—no change; conditions: PLD activation, fold; 24 hours incubation
Method: Cells were incubated with test compound for 24 hours. 25 minutes prior to harvest at 24 hours, 3% ethanol solution was added to the wells to catalyze cleavage of the phospholipid. Cells were then placed on ice, washed and harvested. The harvested cells were centrifuged and the supernatant was aspirated and the pellet kept. The pellet was resuspended and chloroform/methanol lipid extraction was performed. The sample was centrifuged and the organic layer was separated, dried under nitrogen and stored at −80° C. On the day of analysis, samples were resuspended and analysed by LC/MS. All phosphatidylethanol species (PEtOH32-40:0-6:16/18:0/1) were combined together and represented as total lipid content (all lipid species).
The assay was run in e18 primary cortical neurons from PLD1 or PLD2 KO mice cultured for 14 days. Alternatively, the assay can be run in the cells described above in the presence of excess PLD1 or PLD2 inhibitor to preclude that particular action from contributing to the effect of the drug.
4) On the day of experiment, cells were washed in warmed HBSS twice before media containing test compound (n=3 per compound per dose), inhibitor (355 nM ML298 or 50 nM VU0150669), or vehicle are added to the wells (1.5 mL in 6 well, 600 μL in 12 well). Plates were incubated for 24 hours at 37° C. with 5% CO2.
5) 25 minutes prior to harvest, a 165 μL of a 3% ethanol solution was added to each well.
PLD activation converts phospholipids to phosphatidylethanols in the presence of ethanol. […] FIPI is a non-competitive inhibitor of PLD activity and was used as a negative control.

aggregates (Proteostat) = experiment: Proteostat protein aggregation assay EC50; assay type: cell-based; conditions: Homo sapiens; 50% reduction of Proteostat levels (fluorescent marker of aggregates)
Description: as §3
8) Detection solution was prepared by adding 10 μl Proteostat™ detection reagent (ENZ-51023-KP002) and 200 μL of 10× assay buffer into 1790 μL water and mixing well.
9) 20 μL was added per well (each well had 80 μl of Fluorobrite™ media with no FBS) and incubated in the dark for 15 min at room temperature.
10) Fluorescence for Proteostat™ (Ex=550 nm; Em=600 nm) was then read.

mKate2 tagged Tau = experiment: Tau-mKate2 fluorescence EC50; assay type: cell-based; conditions: Homo sapiens; 50% reduction of mKate2 fluorescence (tau tag)
Method: as §1
as §2, with “After 3 hours test compound was aspirated off and kept.” left out, “The Hoescht measurement allowed normalisation of results across wells.” left out
5) Treatment plate was then washed quickly 3 times with warm FB-DMEM (100 μL/well). […] At this point, the plate was ready for reading. See details in Reading Plate section. Hoescht was read at Excitation wavelength (Ex)=355 nm & Emission wavelength (Em)=446 nm. mKate2 was read at Ex=575 nm & Em=630 nm. Cyto-ID™ was read at Ex=463 nm & Em=534 nm. […]

SMILES | % Inhibition Tau/aggregate (Tau/aggregate) | % Increase Autophagy Markers (Autophagy Markers; @ 2 μM) | CC50 ([1]; read-out: Cyto-toxixity LC50) | inhibition at 1 µM (Tau/aggregate) | % Increase Autophagy Markers (Autophagy Markers) | PLD (phospholipase D (PLD)) | CC50 ([1]; XTT assay, 200 = upper concentration limit tested, read-out: LC50 (the source's name)) | EC50 (aggregates (Proteostat)) | EC50 (mKate2 tagged Tau)
Fc1ccc2ncnc(SC3Cc4ccccc4C3)c2c1 [WHYKD20] | No Effect @ 2 μM | No Effect @ 2 μM | > 100 µM | – | – | – | – | – | –
Fc1ccc2ncnc(Cl)c2c1 [WHYKD9] | No Effect @ 2 μM | No Effect @ 2 μM | > 100 µM | – | – | – | – | – | –
Fc1ccc2ncnc(SC3CCCC3)c2c1 [WHYKD15] | – | – | > 100 µM | 65% | 40% | 3.6 X | – | – | –
Cn1nnnc1Sc1ncnc2ccc(-c3cccc4ccccc34)cc12 [WHYKD4] | No Effect @ 2 μM | No Effect @ 2 μM | > 100 µM | – | – | – | – | – | –
Fc1ccc2ncnc(SC34CC5CC(CC(C5)C3)C4)c2c1 [WHYKD14] | No Effect @ 2 μM | No Effect @ 2 μM | > 100 µM | – | – | – | – | – | –
Oc1ccc(CCNc2ncnc3ccsc23)cc1 [WHYKD23] | No Effect @ 2 μM | No Effect @ 2 μM | > 100 µM | – | – | – | – | – | –
Cn1nnnc1Sc1ccnc2ccccc12 [WHYKD10] | No Effect @ 2 μM | No Effect @ 2 μM | > 100 µM | – | – | – | – | – | –
CC1(Sc2ncnc3ccc(F)cc23)CCC2CC1C2(C)C (stereo not drawn) [WHYKD13] | No Effect @ 2 μM | No Effect @ 2 μM | > 100 µM | – | – | – | – | – | –
Cn1nnnc1Sc1ncnc2ccc(F)cc12 [WHYKD5] | – | – | > 100 µM | 35% | 20% | 1.7X | – | – | –
Cn1nnnc1Sc1ncnc2ccc(Br)cc12 [WHYKD3] | No Effect @ 2 μM | No Effect @ 2 μM | > 100 µM | – | – | NC | – | – | –
Cn1nnnc1Sc1ncnc2ccc(Cl)cc12 [WHYKD7] | No Effect @ 2 μM | No Effect @ 2 μM | > 100 µM | – | – | – | – | – | –
Cn1nnnc1Sc1ccnc2ccc(F)cc12 [WHYKD11] | No Effect @ 2 μM | No Effect @ 2 μM | > 100 µM | – | – | – | – | – | –
Fc1ccc2ncnc(SC3CC4CCC3C4)c2c1 (stereo not drawn) [WHYKD16] | No Effect @ 2 μM | No Effect @ 2 μM | > 100 µM | – | – | – | – | – | –
O=c1[nH]cnc2ccc(F)cc12 [WHYKD24] | – | – | > 100 µM | 30% | 15% | – | – | – | –
Fc1ccc2ncnc(SC3CCOCC3)c2c1 [WHYKD19] | – | – | > 100 µM | 55% | 35% | 3.5 X | – | – | –
Ic1ccc2ncnc(SC3CCCC3)c2c1 [WHYKD30] | – | – | – | – | – | – | > 200 µM | 2510 nM | 1110 nM
Oc1ccc(CCNc2ncnc3scnc23)cc1 [WHYKD2] | No Effect @ 2 μM | No Effect @ 2 μM | > 100 µM | – | – | – | – | – | –
Cn1nnnc1Sc1ncnc2ccccc12 [WHYKD6] | No Effect @ 2 μM | No Effect @ 2 μM | > 100 µM | – | – | – | – | – | –
Cn1nnnc1Sc1ncnc2scnc12 [WHYKD1] | No Effect @ 2 μM | No Effect @ 2 μM | > 100 µM | – | – | NC | – | – | –
Oc1ccc(CCNc2ncnc3ncsc23)cc1 [WHYKD21] | No Effect @ 2 μM | No Effect @ 2 μM | > 100 µM | – | – | – | – | – | –
COC(=O)CC12CC3CC(C1)CC(Sc1ncnc4ccc(F)cc14)(C3)C2 [WHYKD18] | No Effect @ 2 μM | No Effect @ 2 μM | > 100 µM | – | – | – | – | – | –
Fc1ccc2ncnc(SC3CCCCC3)c2c1 [WHYKD12] | – | – | > 100 µM | 60% | 40% | 3.4 X | – | – | –
Oc1ccc(CCNc2ncnc3sccc23)cc1 [WHYKD22] | No Effect @ 2 μM | No Effect @ 2 μM | > 100 µM | – | – | – | – | – | –

From patent US10487091B2, “Activators of autophagic flux and phospholipase D and clearance of protein aggregates including tau and treatment of proteinopathies” (THE TRUSTEES OF COLUMBIA UNIVERSITY IN THE CITY OF NEW YORK, priority 2015, dated 2019)
